In brackets after ≈: the same amount, converted by molar mass.
How the values were obtained:
A. baumannii AR-0033 = assay: MIC, broth microdilution (CLSI); format: cell-based; settings: Acinetobacter baumannii, AR0033; A. baumannii AR-0033 clinical isolate; † = dose-independent trailing growth
Protocol: (§1) II. Materials and Methods for Biological Experiments
(§2) S. aureus ATCC 29213 and E. coli MG1655 were obtained from the American Type Culture Collection (ATCC). E. coli BW25113 and E. coli JW5503 were obtained from the Keio Collection. AR-bank strains were obtained from the Centers for Disease Control and Prevention and FDA Antibiotic Resistance Isolate Bank.
(§3) Antimicrobial susceptibility tests
(§4) Susceptibility testing was performed in biological triplicate, unless noted otherwise, using the micro-dilution broth method as outlined by the Clinical and Laboratory Standards Institute. Bacteria were cultured with cation-adjusted Mueller Hinton broth (Sigma Aldrich, catalogue number: 90922). […]
(§5) NH3: m/z 391.2 → 171.0. Fabimycin: m/z 405.3 → 145.3. Power analysis was not used to determine the number of replicates. Error bars represent the standard error of the mean of three biological replicates. All compounds evaluated in biological assays were ≥95% pure.

E. coli AR-0048 = assay: MIC, broth microdilution (CLSI); format: cell-based; settings: Escherichia coli, AR0048; E. coli AR-0048 clinical isolate
Protocol: as §1, §2, §3, §4, §5

E. coli MG1655 = assay: MIC, broth microdilution (CLSI); format: cell-based; settings: Escherichia coli
Protocol: as §1, §2, §3, §4, §5

A. baumannii AR-0273 = assay: MIC, broth microdilution (CLSI); format: cell-based; settings: Acinetobacter baumannii, AR0273; A. baumannii AR-0273 clinical isolate
Protocol: as §1, §2, §3, §4, §5

K. pneumoniae AR-0066 = assay: MIC, broth microdilution (CLSI); format: cell-based; settings: Klebsiella pneumoniae, AR0066; K. pneumoniae AR-0066 clinical isolate
Protocol: as §1, §2, §3, §4, §5

K. pneumoniae BAA-2472 = assay: MIC, broth microdilution (CLSI); format: cell-based; settings: Klebsiella pneumoniae, BAA2472
Protocol: as §1, §2, §3, §4, §5

S. aureus ATCC 29213 = assay: MIC, broth microdilution (CLSI); format: cell-based; settings: Staphylococcus aureus, ATCC29213; S. aureus 29213
Protocol: as §1, §2, §3, §4, §5

K. pneumoniae AR-0560 = assay: MIC, broth microdilution (CLSI); format: cell-based; settings: Klebsiella pneumoniae, AR0560; K. pneumoniae AR-0560 clinical isolate
Protocol: as §1, §2, §3, §4, §5

A. baumannii AR-0299 = assay: MIC, broth microdilution (CLSI); format: cell-based; settings: Acinetobacter baumannii, AR0299; A. baumannii AR-0299 clinical isolate; † = dose-independent trailing growth
Protocol: as §1, §2, §3, §4, §5

E. coli AR-0085 = assay: MIC, broth microdilution (CLSI); format: cell-based; settings: Escherichia coli, AR0085; E. coli AR-0085 clinical isolate
Protocol: as §1, §2, §3, §4, §5

K. pneumoniae AR-0113 = assay: MIC, broth microdilution (CLSI); format: cell-based; settings: Klebsiella pneumoniae, AR0113; K. pneumoniae AR-0113 clinical isolate
Protocol: as §1, §2, §3, §4
(§6) Error bars represent the standard error of the mean of three biological replicates. All compounds evaluated in biological assays were ≥95% pure.

A. baumannii AR-0313 = assay: MIC, broth microdilution (CLSI); format: cell-based; settings: Acinetobacter baumannii, AR0313; A. baumannii AR-0313 clinical isolate; † = dose-independent trailing growth
Protocol: as §1, §2, §3, §4, §6

E. coli ΔtolC (JW5503) = assay: MIC, broth microdilution (CLSI); format: cell-based, Escherichia coli; settings: Escherichia coli
Protocol: as §1, §2, §3, §4, §5

Aqueous solubility = format: physicochemical
E. coli FabI = target: T1, E. coli FabI (Escherichia coli, UniProt P0AEK4); assay: In vitro FabI enzymatic inhibition assay; format: biochemical; settings: EcFabI; Morrison's quadratic fit; 5 nM enzyme; read-out: Ki app
T1 construct: His(6) with TEV site (cleaved yes); made in house; host or cells: E. coli BL21(DE3)
T1 sequence (P0AEK4 whole entry): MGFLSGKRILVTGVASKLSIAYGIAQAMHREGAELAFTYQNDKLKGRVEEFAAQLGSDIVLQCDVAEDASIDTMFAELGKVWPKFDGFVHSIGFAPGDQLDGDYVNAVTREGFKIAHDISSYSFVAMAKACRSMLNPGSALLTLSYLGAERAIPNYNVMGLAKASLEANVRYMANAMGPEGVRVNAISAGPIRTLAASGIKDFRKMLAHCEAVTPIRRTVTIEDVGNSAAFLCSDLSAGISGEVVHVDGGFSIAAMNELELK
Protocol: (§7) supplemented with 100 µg/mL ampicillin at 37°C until OD600 reached 0.6-0.7. The cells were induced with 1mM IPTG and incubated for 20 hours at 18°C and spun down at 8000 rpm for 15 minutes. Cell pellet was resuspended in the lysis buffer (50 mM Tris-HCl pH 8.0, 500 mM Na Cl, 20 mM imidazole, 10% glycerol, 0.5 mM TCEP, protease inhibitor and Lysonase) and passed through microfluidizer followed by centrifugation and filtration to remove cell debris. The clarified lysate was supplemented with 20 mM imidazole and passed over a HisTrap column (Cytiva) pre-equilibrated with the wash buffer (50 mM Tris-HCl pH 8.0, 500 mM NaCl, 20 mM imidazole, 10% glycerol, 0.5 mM TCEP). The column was washed with the wash buffer and eluted over a 20-500 mM imidazole gradient. The appropriate fractions were pooled, and the histidine tag was removed by TEV cleavage. The protein mixture was passed over a HisTrap column to separate the cleaved protein from the uncleaved ones. The cleaved protein was pooled and passed over an S75 size exclusion column (GE LifeSciences) pre-equilibrated with 50 mM Tris-HCl pH 8.0, 500 mM NaCl, 0.5 mM TCEP and 10% glycerol. Fractions containing pure protein were pooled, concentrated at 10 mg/mL and stored at -80°C. […]
(§8) In vitro FabI enzymatic inhibition assay
(§9) Recombinant E. coli and A. baummani FabI enzymes were used in a continuous NADH absorbance assay (20 µL in 384w format). Compounds and the Crotonyl-CoA substrate (Sigma–Aldrich 28007) were dispensed into a plate (GeinerBio-One 781101). The reaction was initiated by the addition of a reaction master mix solution containing enzyme and NADH (Sigma–Aldrich N8129) suspended in reaction buffer (50 mM HEPES pH 7.4, 150 mM NaCl, 1 mM EDTA, 0.01 mg/mL BSA, 0.01% Tween). Final concentrations were 5 nM enzyme, 150 μM Crotonyl-CoA, 380 μM NADH, 0.05% DMSO in 1x reaction buffer. After shaking for 5 seconds the reaction was monitored at NADH absorbance (340nm, 25°C) using a Molecular Devices SpectraMax M5 microplate reader. The linear portion of the progress curve was fit using plate-reader software. Percentage activity was calculated relative to DMSO only and no-substrate controls in each plate and the data were fit to Morrison’s quadratic using Graphpad Prism 9.3 to obtain apparent inhibition constant (Ki app) values. […]
(§10) 480 Real-Time PCR System as a function of a temperature ramp (25-95°C; 0.1°/s) and the Tm was calculated using the […]

A. baumannii FabI = A. baumannii FabI (Acinetobacter baumannii, UniProt D0CAD5); assay: In vitro FabI enzymatic inhibition assay; format: biochemical; settings: AbFabI; Morrison's quadratic fit; 5 nM enzyme; read-out: Ki app
A. baumannii FabI, sequence (D0CAD5 entry or part of it): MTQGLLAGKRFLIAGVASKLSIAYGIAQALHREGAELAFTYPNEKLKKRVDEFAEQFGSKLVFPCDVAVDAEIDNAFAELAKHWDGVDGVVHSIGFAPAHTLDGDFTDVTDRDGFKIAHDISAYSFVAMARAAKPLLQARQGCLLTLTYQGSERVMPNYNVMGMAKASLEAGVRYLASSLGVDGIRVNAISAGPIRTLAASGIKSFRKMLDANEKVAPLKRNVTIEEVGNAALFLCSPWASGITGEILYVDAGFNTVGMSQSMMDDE
Protocol: as §7, §8, §9, §10

Cc1c(CN(C)C(=O)/C=C/c2cnc3c(c2)CC[C@H](NC(=O)OC(C)(C)C)C(=O)N3)oc2ccccc12 [(S)-11]
MIC (A. baumannii AR-0033): 64 µg/mL (≈ 127 µM)
MIC (E. coli AR-0048): 16 µg/mL (≈ 31.7 µM)
MIC (E. coli MG1655): 8 µg/mL (≈ 15.9 µM)
MIC (A. baumannii AR-0273): 8 µg/mL (≈ 15.9 µM)
MIC (K. pneumoniae AR-0066): 64 µg/mL (≈ 127 µM)
MIC (K. pneumoniae BAA-2472): 32 µg/mL (≈ 63.4 µM)
MIC (S. aureus ATCC 29213): 0.016 µg/mL (≈ 0.0317 µM)
MIC (K. pneumoniae AR-0560): 32 µg/mL (≈ 63.4 µM)
MIC (A. baumannii AR-0299): 8 µg/mL (≈ 15.9 µM)
MIC (E. coli AR-0085): 8 µg/mL (≈ 15.9 µM)
MIC (K. pneumoniae AR-0113): 32 µg/mL (≈ 63.4 µM)
MIC (A. baumannii AR-0313): 64 µg/mL (≈ 127 µM)
MIC (E. coli ΔtolC (JW5503)): 0.125 µg/mL (≈ 0.248 µM)
aqueous solubility (Aqueous solubility): limited aqueous solubility
Ki (E. coli FabI): 60 ± 10 nM
Ki (A. baumannii FabI): 947 ± 234 nM

From article PMC9413440, “An Iterative Approach Guides Discovery of the FabI Inhibitor Fabimycin, a Late-Stage Antibiotic Candidate with In Vivo Efficacy against Drug-Resistant Gram-Negative Infections” (ACS Central Science, 2022)
